Test results from patent publication US20030225007A1, “Sulfonamide derivatives of 3-substituted imidazol[1,2-d]-1,2,4-thiadiazoles and 3-substituted-[1,2,4] thiadiazolo[4,5-a] benzimidazole as inhibitors of fibrin cross-linking and transglutaminases” (Apotex Inc., priority 2002, published 2003).

Assays:
[1] = biological target: T1, endogenous Factor XIII in plasma (Plasma FXIIIa) (Homo sapiens, UniProt P00488); test: Inactivation of endogenous Factor XIII in plasma; assay type: biochemical; settings: citrated plasma, thrombin-activated, 5 min at 37° C.
T1 construct: from tissue; host or cells: citrated plasma (desensitized by heating)
T1 sequence (P00488 39-732 limits assumed): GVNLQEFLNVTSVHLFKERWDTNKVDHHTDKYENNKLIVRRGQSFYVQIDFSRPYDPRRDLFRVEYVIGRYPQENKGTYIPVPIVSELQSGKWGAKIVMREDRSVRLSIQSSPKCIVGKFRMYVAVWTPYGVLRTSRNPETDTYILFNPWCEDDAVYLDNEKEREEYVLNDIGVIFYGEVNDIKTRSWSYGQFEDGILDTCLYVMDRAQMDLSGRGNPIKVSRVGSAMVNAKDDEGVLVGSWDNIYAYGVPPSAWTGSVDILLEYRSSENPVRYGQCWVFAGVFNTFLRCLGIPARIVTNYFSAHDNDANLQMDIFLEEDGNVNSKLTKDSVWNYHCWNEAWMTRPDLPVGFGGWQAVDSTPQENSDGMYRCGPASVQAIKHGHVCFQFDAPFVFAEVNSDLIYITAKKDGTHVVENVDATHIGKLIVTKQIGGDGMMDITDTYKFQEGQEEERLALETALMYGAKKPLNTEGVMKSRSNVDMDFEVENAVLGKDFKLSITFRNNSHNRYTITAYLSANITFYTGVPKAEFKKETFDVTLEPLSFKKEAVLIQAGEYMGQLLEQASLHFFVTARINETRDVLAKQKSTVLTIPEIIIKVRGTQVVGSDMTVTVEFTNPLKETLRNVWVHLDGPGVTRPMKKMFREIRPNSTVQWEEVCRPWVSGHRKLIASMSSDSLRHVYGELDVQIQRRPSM
Description: Citrated plasma (0.235 mL) was “desensitized” by heating with ethylene glycol monomethyl ether (0.235 mL, 20% solution in water) in a glass test tube at 56° C. for 4 min., as described by Lorand (Lorand, L.; Lockridge, O. M.; Campbell, L. K.; Myhrman, R.; Bruner-Lorand, J. Anal.Biochem. 1971, 44, 221-231). After cooling to 37° C., calcium chloride (20 μL, 0.4 M in 50 mM Tris-HCl pH 7.5) and inhibitor solution in 50% glycerol (59 μL) were added. Bovine thrombin (30 NIH units in 118 μL of 50 mM Tris-HCl pH 7.5 containing 20 mM CaCl2) was added and the mixture was incubated at 37° C. for 5 min.
An assay mixture composed of 0.1 M sodium borate, pH 9.0, 0.3% ethylene glycol monomethyl ether, 32 μM monodansylcadaverine, 10 mM CaCl2 and 0.08% dimethyl casein in a final volume of 1.263 mL was prepared in a spectrofluorometric cell and incubated at 37° C. for a few minutes. To assay the residual enzyme activity, 567 μL of the plasma solution was transferred to the assay mixture. The covalent incorporation of monodansylcadaverine into casein was monitored by an increase in fluorescence at λex=360 nm and λem=500 nm, as previously described (Curtis, C. G.; Lorand, L. Methods Enzymol. 1976, 45, 177-191). To determine uninhibited enzyme activity, inhibitor solution was replaced by 50% glycerol. IC50 values (inhibitor concentration resulting in 50% enzyme inactivation) were determined by plotting the percent of remaining enzyme activity against logarithm of inhibitor concentration.

[2] = biological target: T2, Factor XIIIa (activated FXIII) (Homo sapiens, UniProt P00488); test: Inactivation of purified Factor XIIIa (monodansylcadaverine incorporation into dimethylcasein, fluorescence); assay type: biochemical; settings: purified activated FXIII; 50% enzyme inactivation after 5-min incubation with inhibitor at 37° C. in the absence of substrate; read-out: FXIIIa (IC50 in μM)
T2 construct: purchased Enzyme Research Laboratories, Ltd
T2 sequence (P00488 39-732 limits assumed): T1 sequence (P00488 39-732 limits assumed)
Description: FXIII (0.5 mg/mL, Enzyme Research Laboratories, Ltd.) in 50 mM Tris-HCl pH 7.5 containing 100 mM NaCl, 40 mM CaCl2, 1 mM EDTA and 0.1% poly(ethylene glycol) (app. MW=8000) was activated by incubation with 10 NIH units/mL of human thrombin (Calbiochem) at 37° C. for 20 min. Thrombin was quenched with 20 NIH units/mL of hirudin from Leech (Sigma).
Inhibitor solution in DMSO (14 μL) was added to 120 μL of 250 mM Tris-Cl pH 7.5 containing 40 mM CaCl2 and 1 mM EDTA and the solution was incubated at 37° C. for two minutes. Activated FXIII (5 μL, 0.5 mg/mL) was added and the mixture was incubated at 37° C. for 5 min.
An assay mixture composed of 50 mM Tris-Cl pH 8.0, 10 mM CaCl2, 1 mM EDTA, 0.1% poly(ethylene glycol) (app. MW=1000) and 20 μM monodansylcadaverine was prepared in a spectrofluorometric cell in a final volume of 2880 μL. Dimethylcasein (8 μL, 1% in 50 mM sodium phosphate pH 7.5) was added and the solution was incubated at 37° C. for a few minutes. To assay the residual enzyme activity, 120 μL of the solution containing the enzyme and the inhibitor was transferred to the assay mixture. The covalent incorporation of monodansylcadaverine into casein was monitored by an increase in fluorescence at λexc=360 nm and λem=500 nm as previously described (Curtis, C. G.; Lorand, L. Methods Enzymol. 1976, 45, 177-191). To determine uninhibited enzyme activity, DMSO was used in place of inhibitor solution in the above assay. IC50 were determined by plotting the percent of remaining enzyme activity against logarithm of inhibitor concentration. IC50 is defined here as an inhibitor concentration resulting in 50% enzyme inactivation after 5-min incubation of the enzyme with the inhibitor in the absence of the substrate. Second order rate constants for inactivation were determined using method described by Kitz and Wilson (Kitz, R.; Wilson, I. J. Biol. Chem. 1962, 237, 3245).

SMILES	IC50 [1] [µM]	IC50 [2] [µM]	melting point [°C]
CN(C)c1cccc2c(S(=O)(=O)NCCCCCNc3nsc4nccn34)cccc12 [1 / 5-Me2N-1-naphthyl, 5-(Dimethylamino)-N-[5-(imidazo[1,2-d][1,2,4]thiadiazol-3-ylamino)pentyl]naphthalene-1-sulfonamide]	7.1		
CS(=O)(=O)NCCCCCCNc1nsc2nccn12 [2 / CH3, N-[6-(Imidazo[1,2-d][1,2,4]thiadiazol-3-ylamino)hexyl]methanesulfonamide]	38		
O=C(O)CCN(CCCCCCNc1nsc2nccn12)S(=O)(=O)c1ccc(F)cc1F [2 / OH / 2-F-4-F-Ph, N-[(2,4-difluorophenyl)sulfonyl]-N-[6-(imidazo[1,2-d][1,2,4]thiadiazol-3-ylamino)hexyl]-β-alanine]		5.2	97 to 100
Cc1c(Cl)cccc1S(=O)(=O)NCCCCCCNc1nsc2nccn12 [2-Me-3-Cl-Ph, 3-chloro-N-[6-(imidazo[1,2-d][1,2,4]thiadiazol-3-ylamino)hexyl]-2-methylbenzenesulfonamide]		1.3	151 to 153
Cc1ccc(F)cc1S(=O)(=O)NCCCCCCNc1nsc2nccn12 [2-Me-5-F-Ph, 5-fluoro-N-[6-(imidazo[1,2-d][1,2,4]thiadiazol-3-ylamino)hexyl]-2-methylbenzenesulfonamide]		10	140 to 142
Nc1ccccc1S(=O)(=O)NCCCCCCNc1nsc2nccn12 [2-NH2-Ph, 2-amino-N-[6-(imidazo[1,2-d][1,2,4]thiadiazol-3-ylamino)hexyl]benzenesulfonamide]		2	138 to 139
O=[N+]([O-])c1ccccc1S(=O)(=O)NCCCCCCNc1nsc2nccn12 [H / H / 2-NO2-Ph, N-[6-(imidazo[1,2-d][1,2,4]thiadiazol-3-ylamino)hexyl]-2-nitrobenzenesulfonamide]			113.7 to 114.6
